# Target: T1, TrkB (Homo sapiens, UniProt Q16620)
# T1 construct: purchased Upstate 14-507M
# Test: Trk B Fluorescence Polarization Kinase Assay
# Assay type: biochemical
# Conditions: uncertainty ±10%
# Procedure, shortened: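 The TrkB kinase reaction (50 nM enzyme, 20 ug/mL poly Glu4Tyr, 150 uM ATP, 5 mM MgCl2, 1% DMSO) ran 30 minutes at room temperature and was stopped with EDTA. Phosphorylation was detected by fluorescence-polarization displacement of a fluorescein phosphopeptide from an anti-phosphotyrosine antibody. IC50 came from a variable-slope sigmoidal fit of triplicates.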
# T1 sequence (Q16620 32-822): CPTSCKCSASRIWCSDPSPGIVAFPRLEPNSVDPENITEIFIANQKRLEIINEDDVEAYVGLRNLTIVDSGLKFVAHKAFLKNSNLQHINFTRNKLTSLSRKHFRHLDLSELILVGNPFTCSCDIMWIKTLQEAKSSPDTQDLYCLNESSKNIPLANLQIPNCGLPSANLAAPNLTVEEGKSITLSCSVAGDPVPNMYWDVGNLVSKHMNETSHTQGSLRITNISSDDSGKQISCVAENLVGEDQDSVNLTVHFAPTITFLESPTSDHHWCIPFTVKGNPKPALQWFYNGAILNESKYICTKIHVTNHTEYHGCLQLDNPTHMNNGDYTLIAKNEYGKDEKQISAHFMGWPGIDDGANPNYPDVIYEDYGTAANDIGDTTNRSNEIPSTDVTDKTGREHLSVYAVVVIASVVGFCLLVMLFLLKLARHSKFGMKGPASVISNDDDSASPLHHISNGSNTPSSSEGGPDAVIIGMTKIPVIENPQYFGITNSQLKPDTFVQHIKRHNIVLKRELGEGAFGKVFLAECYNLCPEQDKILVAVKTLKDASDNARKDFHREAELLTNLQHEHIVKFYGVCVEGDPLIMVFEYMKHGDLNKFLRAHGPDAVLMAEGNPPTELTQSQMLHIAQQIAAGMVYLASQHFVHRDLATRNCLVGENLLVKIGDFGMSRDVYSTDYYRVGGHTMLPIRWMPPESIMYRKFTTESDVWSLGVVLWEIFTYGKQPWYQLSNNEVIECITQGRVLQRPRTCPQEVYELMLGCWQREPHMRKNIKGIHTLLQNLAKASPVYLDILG
row,SMILES,IC50 [µM]
1,"CN1CCN(CCCOc2ccc3c(C4CCN(C(=S)Nc5ccc(N6CCOCC6)nc5)CC4)ncnc3c2)CC1 [Compound 106, 4-{7-[3-(4-Methyl-piperazin-1-yl)-propoxy]-quinazolin-4-yl}-piperidine-1-carbothioic acid (6-morpholin-4-yl-pyridin-3-yl)-amide]",16.3
2,"COc1cc2ncnc(C3CCN(C(=O)Nc4ccc(OC(F)F)cc4)CC3)c2cc1OC [Compound 51, 4-(6,7-Dimethoxy-quinazolin-4-yl)-piperidine-1-carboxylic acid (4-difluoromethoxy-phenyl)-amide]",4
3,"O=C(Nc1ccc(N2CCOCC2)cc1)N1CCC(c2ncnc3cc(OCCC4CCCCN4)ccc23)CC1 (centres unmarked) [Compound 98, 4-[7-(2-Piperidin-2-yl-ethoxy)-quinazolin-4-yl]-piperidine-1-carboxylic acid (4-morpholin-4-yl-phenyl)-amide]",> 20
4,"CN1CCC(COc2ccc3c(C4CCN(C(=O)Nc5ccc(N6CCOCC6)nc5)CC4)ncnc3c2)CC1 [Compound 108, 4-[7-(1-Methyl-piperidin-4-ylmethoxy)-quinazolin-4-yl]-piperidine-1-carboxylic acid (6-morpholin-4-yl-pyridin-3-yl)-amide]",5.4
5,"CC(C)c1ccc(NC(=O)N2CCC(c3ccnc4ccccc34)CC2)cc1 [Compound 5, 4-Quinolin-4-yl-piperidine-1-carboxylic acid (4-isopropyl-phenyl)-amide]",0.7
6,"COc1cc2ncnc(C3CCN(CC(=O)Nc4ccc(OC(C)C)cc4)CC3)c2cc1OC [Compound 10, 2-[4-(6,7-Dimethoxy-quinazolin-4-yl)-piperidin-1-yl]-N-(4-isopropoxy-phenyl)-acetamide]",1
7,"O=C(Nc1ccc(N2CCCC2)nc1)N1CCC(c2ncnc3cc(OCCN4CCOC4=O)ccc23)CC1 [Compound 92, 4-{7-[2-(2-Oxo-oxazolidin-3-yl)-ethoxy]-quinazolin-4-yl}-piperidine-1-carboxylic acid (6-pyrrolidin-1-yl-pyridin-3-yl)-amide]",1.3
8,"COc1cc2ncnc(C3CCN(C(=O)Nc4ccc(Oc5ccccc5)cc4)CC3)c2cc1OC [Compound 47, 4-(6,7-Dimethoxy-quinazolin-4-yl)-piperidine-1-carboxylic acid (4-phenoxy-phenyl)-amide]",4
9,"COc1cc2ncnc(C3CCN(C(=O)Nc4ccc(C5=CCN(C(=O)OC(C)(C)C)CC5)cc4)CC3)c2cc1OC [Compound 61, 4-(4-{[4-(6,7-Dimethoxy-quinazolin-4-yl)-piperidine-1-carbonyl]-amino}-phenyl)-3,6-dihydro-2H-pyridine-1-carboxylic acid tert-butyl ester]",40.6
10,"COc1cc2ncnc(C3CCN(C(=O)Nc4ccc(C5=CCNCC5)cc4)CC3)c2cc1OC [Compound 62, 4-(6,7-Dimethoxy-quinazolin-4-yl)-piperidine-1-carboxylic acid [4-(1,2,3,6-tetrahydro-pyridin-4-yl)-phenyl]-amide]",> 10
11,"CC(C)Oc1ccc(NC(=O)N2CCC(c3ncnc4ccc(C#CCN5CCCCC5)cc34)CC2)cc1 [Compound 14, 4-[6-(3-Piperidin-1-yl-prop-1-ynyl)-quinazolin-4-yl]-piperidine-1-carboxylic acid (4-isopropoxy-phenyl)-amide]",0.3
12,"COc1cc2ncnc(C3CCN(C(=O)Nc4ccc(I)cc4)CC3)c2cc1OC [Compound 2, 4-(6,7-Dimethoxy-quinazolin-4-yl)-piperidine-1-carboxylic acid (4-iodo-phenyl)-amide]",6.2
13,"CCN(CC)CC#Cc1ccc2ncnc(C3CCN(C(=O)Nc4ccc(OC(C)C)cc4)CC3)c2c1 [Compound 13, 4-[6-(3-Diethylamino-prop-1-ynyl)-quinazolin-4-yl]-piperidine-1-carboxylic acid (4-isopropoxy-phenyl)-amide]",1.3
14,"COc1cc2ncnc(C3CCN(C(=O)Nc4ccc(-c5cncnc5)cc4)CC3)c2cc1OC [Compound 58, 4-(6,7-Dimethoxy-quinazolin-4-yl)-piperidine-1-carboxylic acid (4-pyrimidin-5-yl-phenyl)-amide]",> 42

# Second part, the molecule after the results:
row,IC50 [µM],SMILES
1,26.7,"O=C(Nc1ccc(N2CCOCC2)cc1)N1CCC(c2ncnc3cc(OCCN4CCOC4=O)ccc23)CC1 [Compound 148, 4-{7-[2-(2-Oxo-oxazolidin-3-yl)-ethoxy]-quinazolin-4-yl}-piperidine-1-carboxylic acid (4-morpholin-4-yl-phenyl)-amide]"
2,2.73,"O=C(Nc1ccc(N2CCCC2)cc1)N1CCC(c2ncnc3cc(OCCN4CCOC4=O)ccc23)CC1 [Compound 147, 4-{7-[2-(2-Oxo-oxazolidin-3-yl)-ethoxy]-quinazolin-4-yl}-piperidine-1-carboxylic acid (4-pyrrolidin-1-yl-phenyl)-amide]"
3,> 42,"CC(=O)N1CC[C@@H](Oc2ccc3c(C4CCN(C(=O)Nc5ccc(N6CCCC6)cc5)CC4)ncnc3c2)C1 [Compound 154, (R)-4-[7-(1-Acetyl-pyrrolidin-3-yloxy)-quinazolin-4-yl]-piperidine-1-carboxylic acid (4-pyrrolidin-1-yl-phenyl)-amide]"
4,> 20,"O=C(Nc1ccc(N2CCOCC2)cc1)N1CCC(c2ncnc3cc(OCCCN4CCC[C@H]4CO)ccc23)CC1 [Compound 119, (S)-4-{7-[3-(2-Hydroxymethyl-pyrrolidin-1-yl)-propoxy]-quinazolin-4-yl}-piperidine-1-carboxylic acid (4-morpholin-4-yl-phenyl)-amide]"
5,> 42,"O=C(Nc1ccc(N2CCOCC2)cc1)N1CCC(c2ncnc3cc(N4CCN(CCO)CC4)ccc23)CC1 [Compound 137, 4-{7-[4-(2-Hydroxy-ethyl)-piperazin-1-yl]-quinazolin-4-yl}-piperidine-1-carboxylic acid (4-morpholin-4-yl-phenyl)-amide]"
6,4.12,"CC(=O)N1CCC(COc2ccc3c(C4CCN(C(=O)Nc5ccc(N6CCCC6)cc5)CC4)ncnc3c2)CC1 [Compound 163, 4-[7-(1-Acetyl-piperidin-4-ylmethoxy)-quinazolin-4-yl]-piperidine-1-carboxylic acid (4-pyrrolidin-1-yl-phenyl)-amide]"
7,> 42,"O=C(Nc1ccc(N2CCOCC2)cc1)N1CCC(c2ncnc3cc(OCCCN4CCOCC4)ccc23)CC1 [Compound 133, 4-[7-(3-Morpholin-4-yl-propoxy)-quinazolin-4-yl]-piperidine-1-carboxylic acid (4-morpholin-4-yl-phenyl)-amide]"
8,0.13,"CC(C)Oc1ccc(NC(=O)N2CCC(c3ncnc4cc(OCCCOS(C)(=O)=O)ccc34)CC2)cc1 [Compound 121, Methanesulfonic acid 3-{4-[1-(4-isopropoxy-phenylcarbamoyl)-piperidin-4-yl]-quinazolin-7-yloxy}-propyl ester]"
9,16.7,"CN(C)C(=O)N1CCN(CCCOc2ccc3c(C4CCN(C(=O)Nc5ccc(N6CCOCC6)cc5)CC4)ncnc3c2)CC1 [Compound 120, 4-(3-{4-[1-(4-Morpholin-4-yl-phenylcarbamoyl)-piperidin-4-yl]-quinazolin-7-yloxy}-propyl)-piperazine-1-carboxylic acid dimethylamide]"
10,18.9,"CS(=O)(=O)OCCCOc1ccc2c(C3CCN(C(=O)Nc4ccc(N5CCOCC5)cc4)CC3)ncnc2c1 [Compound 122, Methanesulfonic acid 3-{4-[1-(4-morpholin-4-yl-phenylcarbamoyl)-piperidin-4-yl]-quinazolin-7-yloxy}-propyl ester]"
11,7.26,"CN(C)[C@@H]1CCN(c2ccc3c(C4CCN(C(=O)Nc5ccc(N6CCCC6)cc5)CC4)ncnc3c2)C1 [Compound 149, (R)-4-[7-(3-Dimethylamino-pyrrolidin-1-yl)-quinazolin-4-yl]-piperidine-1-carboxylic acid (4-pyrrolidin-1-yl-phenyl)-amide]"
12,> 20,"O=C(Nc1ccc(N2CCOCC2)cc1)N1CCC(c2ncnc3cc(OCCCN4CCNCC4)ccc23)CC1 [Compound 123, 4-[7-(3-piperazin-1-yl-propoxy)-quinazolin-4-yl]-piperidine-1-carboxylic acid (4-morpholin-4-yl-phenyl)-amide]"
13,> 42,"CCN1CCN(c2ccc3c(C4CCN(C(=O)Nc5ccc(N6CCOCC6)cc5)CC4)ncnc3c2)CC1 [Compound 136, 4-[7-(4-Ethyl-piperazin-1-yl)-quinazolin-4-yl]-piperidine-1-carboxylic acid (4-morpholin-4-yl-phenyl)-amide]"
14,> 20,"CN(C)c1c(NCCCOc2ccc3c(C4CCN(C(=O)Nc5ccc(N6CCCC6)nc5)CC4)ncnc3c2)c(=O)c1=O [Compound 111, 4-{7-[3-(2-Dimethylamino-3,4-dioxo-cyclobut-1-enylamino)-propoxy]-quinazolin-4-yl}-piperidine-1-carboxylic acid (6-pyrrolidin-1-yl-pyridin-3-yl)-amide]"
15,15,"O=C(Nc1ccc(N2CCOCC2)nc1)N1CCC(c2ncnc3cc(OCCCn4cnnc4)ccc23)CC1 [Compound 110, 4-[7-(3-[1,2,4]Triazol-4-yl-propoxy)-quinazolin-4-yl]-piperidine-1-carboxylic acid (6-morpholin-4-yl-pyridin-3-yl)-amide]"
16,> 42,"O=C(Nc1ccc(N2CCOCC2)cc1)N1CCC(c2ncnc3cc(OCCN4CCC[C@H]4CO)ccc23)CC1 [Compound 153, (S)-4-{7-[2-(2-Hydroxymethyl-pyrrolidin-1-yl)-ethoxy]-quinazolin-4-yl}-piperidine-1-carboxylic acid (4-morpholin-4-yl-phenyl)-amide]"
17,> 42,"O=C(Nc1ccc(N2CCOCC2)cc1)N1CCC(c2ncnc3cc(N4CCNCC4)ccc23)CC1 [Compound 140, 4-(7-piperazin-1-yl-quinazolin-4-yl)-piperidine-1-carboxylic acid (4-morpholin-4-yl-phenyl)-amide]"
18,> 20,"O=C(Nc1ccc(N2CCOCC2)cc1)N1CCC(c2ncnc3cc(OCCCN4CCCC4)ccc23)CC1 [Compound 124, 4-[7-(3-Pyrrolidin-1-yl-propoxy)-quinazolin-4-yl]-piperidine-1-carboxylic acid (4-morpholin-4-yl-phenyl)-amide]"
